Values joined by “and” are separate entries in the source; they are usually repeats but may differ in a detail not shown here. Equal values may be shown once. Numbers after ± are expanded uncertainties. Blank lines part the entries; values can stand above or below the compound they belong to.
What was measured:
[1] = molar heat capacity at constant pressure; xn = mol fraction of the nth substance listed; conditions: 100 kPa, Liquid, Small sample (50 mg) DSC, x2 = 0
[2] = molar heat capacity at constant pressure; conditions: 101.33 kPa, Liquid, Small sample (50 mg) DSC

Structure (SMILES): CO [methanol] + CC(O)C(C)O
molar heat capacity at constant pressure ([1]; 293.15 K): 80.46 ± 3.4 J/K/mol | molar heat capacity at constant pressure ([1]; 298.15 K): 81.39 ± 3.5 J/K/mol | molar heat capacity at constant pressure ([1]; 303.15 K): 82.38 ± 3.5 J/K/mol | molar heat capacity at constant pressure ([1]; 308.15 K): 83.44 ± 3.5 J/K/mol | molar heat capacity at constant pressure ([1]; 313.15 K): 84.56 ± 3.6 J/K/mol | molar heat capacity at constant pressure ([1]; 318.15 K): 85.78 ± 3.7 J/K/mol | molar heat capacity at constant pressure ([1]; 323.15 K): 87.03 ± 3.7 J/K/mol

Structure (SMILES): CO [methanol] + CCC(O)CO
molar heat capacity at constant pressure ([1]; 293.15 K): 80.46 ± 3.4 J/K/mol | molar heat capacity at constant pressure ([1]; 298.15 K): 81.39 ± 3.5 J/K/mol | molar heat capacity at constant pressure ([1]; 303.15 K): 82.38 ± 3.5 J/K/mol | molar heat capacity at constant pressure ([1]; 308.15 K): 83.44 ± 3.5 J/K/mol | molar heat capacity at constant pressure ([1]; 313.15 K): 84.56 ± 3.6 J/K/mol | molar heat capacity at constant pressure ([1]; 318.15 K): 85.78 ± 3.7 J/K/mol | molar heat capacity at constant pressure ([1]; 323.15 K): 87.03 ± 3.7 J/K/mol

molar heat capacity at constant pressure ([2]; 293.15 K): 233.95 ± 9.9 J/K/mol | molar heat capacity at constant pressure ([2]; 303.15 K): 239.36 ± 10 J/K/mol | molar heat capacity at constant pressure ([2]; 308.15 K): 242.07 ± 10 J/K/mol | molar heat capacity at constant pressure ([2]; 313.15 K): 244.77 ± 10 J/K/mol | molar heat capacity at constant pressure ([2]; 318.15 K): 247.47 ± 11 J/K/mol | molar heat capacity at constant pressure ([2]; 323.15 K): 250.18 ± 11 J/K/mol
Structure (SMILES): CC(O)C(C)O (stereo not drawn) [2,3-butanediol]
molar heat capacity at constant pressure ([2]; 298.15 K): 236.66 ± 10 J/K/mol and 236.63 ± 10 J/K/mol

Structure (SMILES): CO [methanol] + CC(O)CCO
molar heat capacity at constant pressure ([1]; 293.15 K): 80.46 ± 3.4 J/K/mol | molar heat capacity at constant pressure ([1]; 298.15 K): 81.39 ± 3.5 J/K/mol | molar heat capacity at constant pressure ([1]; 303.15 K): 82.38 ± 3.5 J/K/mol | molar heat capacity at constant pressure ([1]; 308.15 K): 83.44 ± 3.5 J/K/mol | molar heat capacity at constant pressure ([1]; 313.15 K): 84.56 ± 3.6 J/K/mol | molar heat capacity at constant pressure ([1]; 318.15 K): 85.78 ± 3.7 J/K/mol | molar heat capacity at constant pressure ([1]; 323.15 K): 87.03 ± 3.7 J/K/mol

molar heat capacity at constant pressure ([2]; 293.15 K): 228.1 ± 9.6 J/K/mol | molar heat capacity at constant pressure ([2]; 303.15 K): 233.5 ± 9.9 J/K/mol | molar heat capacity at constant pressure ([2]; 308.15 K): 236.21 ± 10 J/K/mol | molar heat capacity at constant pressure ([2]; 313.15 K): 238.91 ± 10 J/K/mol | molar heat capacity at constant pressure ([2]; 318.15 K): 241.52 ± 10 J/K/mol | molar heat capacity at constant pressure ([2]; 323.15 K): 244.23 ± 10 J/K/mol
Structure (SMILES): CCC(O)CO (stereo not drawn) [1,2-butanediol]
molar heat capacity at constant pressure ([2]; 298.15 K): 230.82 ± 9.8 J/K/mol and 230.8 ± 9.8 J/K/mol

Structure (SMILES): CO [methanol]
molar heat capacity at constant pressure ([2]; 293.15 K): 80.46 ± 3.4 J/K/mol | molar heat capacity at constant pressure ([2]; 298.15 K): 81.38 ± 3.5 J/K/mol and 81.39 ± 3.5 J/K/mol | molar heat capacity at constant pressure ([2]; 303.15 K): 82.38 ± 3.5 J/K/mol | molar heat capacity at constant pressure ([2]; 308.15 K): 83.44 ± 3.5 J/K/mol | molar heat capacity at constant pressure ([2]; 313.15 K): 84.56 ± 3.6 J/K/mol | molar heat capacity at constant pressure ([2]; 318.15 K): 85.78 ± 3.7 J/K/mol | molar heat capacity at constant pressure ([2]; 323.15 K): 87.03 ± 3.7 J/K/mol

Structure (SMILES): CC(O)CCO (stereo not drawn) [1,3-butanediol]
molar heat capacity at constant pressure ([2]; 293.15 K): 215.84 ± 9.2 J/K/mol | molar heat capacity at constant pressure ([2]; 298.15 K): 218.89 ± 9.3 J/K/mol and 218.9 ± 9.3 J/K/mol | molar heat capacity at constant pressure ([2]; 303.15 K): 222.06 ± 9.5 J/K/mol | molar heat capacity at constant pressure ([2]; 308.15 K): 225.21 ± 9.6 J/K/mol | molar heat capacity at constant pressure ([2]; 313.15 K): 228.37 ± 9.7 J/K/mol | molar heat capacity at constant pressure ([2]; 318.15 K): 231.61 ± 9.8 J/K/mol | molar heat capacity at constant pressure ([2]; 323.15 K): 234.86 ± 10 J/K/mol

Structure (SMILES): CO [methanol] + OCCCCO
molar heat capacity at constant pressure ([1]; 293.15 K): 80.46 ± 3.4 J/K/mol | molar heat capacity at constant pressure ([1]; 298.15 K): 81.39 ± 3.5 J/K/mol | molar heat capacity at constant pressure ([1]; 303.15 K): 82.38 ± 3.5 J/K/mol | molar heat capacity at constant pressure ([1]; 308.15 K): 83.44 ± 3.5 J/K/mol | molar heat capacity at constant pressure ([1]; 313.15 K): 84.56 ± 3.6 J/K/mol | molar heat capacity at constant pressure ([1]; 318.15 K): 85.78 ± 3.7 J/K/mol | molar heat capacity at constant pressure ([1]; 323.15 K): 87.03 ± 3.7 J/K/mol

Structure (SMILES): OCCCCO [1,4-butanediol]
molar heat capacity at constant pressure ([2]; 293.15 K): 201.15 ± 8.6 J/K/mol | molar heat capacity at constant pressure ([2]; 298.15 K): 203.79 ± 8.7 J/K/mol and 203.76 ± 8.7 J/K/mol | molar heat capacity at constant pressure ([2]; 303.15 K): 206.56 ± 8.7 J/K/mol | molar heat capacity at constant pressure ([2]; 308.15 K): 209.44 ± 8.9 J/K/mol | molar heat capacity at constant pressure ([2]; 313.15 K): 212.33 ± 9 J/K/mol | molar heat capacity at constant pressure ([2]; 318.15 K): 215.39 ± 9.1 J/K/mol | molar heat capacity at constant pressure ([2]; 323.15 K): 218.54 ± 9.3 J/K/mol

Source: the NIST ThermoML archive (doi:10.1016/j.jct.2014.07.023)
